Assay results: patent US6835371B1 (priority 1997, dated 2004)
Several values for one entry are separate records, joined by “and”; a condition that tells them apart may be missing. Equal entries are not always repeated. Where two headings read alike, the source gives them in different places.

What was measured:
[1] = target: T1, human norepinephrine transporter (hNET) (Homo sapiens, UniProt P23975); test: cell-based
[2] = target: T2, human dopamine transporter (hDAT) (Homo sapiens, UniProt Q01959); test: cell-based
T2 sequence (Q01959 whole entry): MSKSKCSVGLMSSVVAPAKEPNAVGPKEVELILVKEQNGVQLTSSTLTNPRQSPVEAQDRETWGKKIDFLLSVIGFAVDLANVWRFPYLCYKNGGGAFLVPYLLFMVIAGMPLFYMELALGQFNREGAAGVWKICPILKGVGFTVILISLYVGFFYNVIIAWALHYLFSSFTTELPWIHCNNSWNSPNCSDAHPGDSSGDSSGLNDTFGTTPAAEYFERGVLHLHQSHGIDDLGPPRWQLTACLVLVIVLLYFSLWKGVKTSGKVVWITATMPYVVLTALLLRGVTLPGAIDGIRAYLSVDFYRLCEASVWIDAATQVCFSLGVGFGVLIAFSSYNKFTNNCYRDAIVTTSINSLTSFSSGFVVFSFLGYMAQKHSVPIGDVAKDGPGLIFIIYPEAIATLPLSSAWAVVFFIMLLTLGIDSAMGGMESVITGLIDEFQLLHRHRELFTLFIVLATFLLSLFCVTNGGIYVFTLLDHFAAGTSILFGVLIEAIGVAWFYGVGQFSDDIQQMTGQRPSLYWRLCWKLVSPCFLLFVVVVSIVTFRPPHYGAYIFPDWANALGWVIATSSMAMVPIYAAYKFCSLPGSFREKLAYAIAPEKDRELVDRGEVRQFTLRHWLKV

[3] = target: T2, human dopamine transporter (hDAT); test: biochemical; type: binding
[4] = target: T1, human norepinephrine transporter (hNET); test: biochemical; type: binding
male Swiss-Webster mice [5] = test: Cocaine interaction study (locomotor activity); type: in vivo; details: for Doses with significant differences against the cocaine group (p<0.05): planned comparisons on log10 horizontal activity counts
male Swiss-Webster mice [6] = test: animal or person; type: in vivo; details: for ED50: Mus musculus, read-out: ED50 (dose producing ½ maximal stimulant activity)
[7] = read-out: [3H]Dopamine Uptake IC50
[8] = read-out: [125I]RTI-55 binding Ki, DAT
[9] = read-out: [125I]RTI-55 binding Ki, NET
[10] = HEK-hNET cells, read-out: [3H]NE Uptake IC50
[11] = Table 2, read-out: Reuptake [3H]NE (Ki ± SD)
[12] = HEK-hDAT cells, read-out: [3H]Dopamine Uptake IC50
[13] = Table 2, read-out: Reuptake [3H]DA (Ki ± SD)
[14] = HEK-hNET cells, read-out: [125I]RTI-55 binding Ki, NET

T1 sequence (P23975 whole entry): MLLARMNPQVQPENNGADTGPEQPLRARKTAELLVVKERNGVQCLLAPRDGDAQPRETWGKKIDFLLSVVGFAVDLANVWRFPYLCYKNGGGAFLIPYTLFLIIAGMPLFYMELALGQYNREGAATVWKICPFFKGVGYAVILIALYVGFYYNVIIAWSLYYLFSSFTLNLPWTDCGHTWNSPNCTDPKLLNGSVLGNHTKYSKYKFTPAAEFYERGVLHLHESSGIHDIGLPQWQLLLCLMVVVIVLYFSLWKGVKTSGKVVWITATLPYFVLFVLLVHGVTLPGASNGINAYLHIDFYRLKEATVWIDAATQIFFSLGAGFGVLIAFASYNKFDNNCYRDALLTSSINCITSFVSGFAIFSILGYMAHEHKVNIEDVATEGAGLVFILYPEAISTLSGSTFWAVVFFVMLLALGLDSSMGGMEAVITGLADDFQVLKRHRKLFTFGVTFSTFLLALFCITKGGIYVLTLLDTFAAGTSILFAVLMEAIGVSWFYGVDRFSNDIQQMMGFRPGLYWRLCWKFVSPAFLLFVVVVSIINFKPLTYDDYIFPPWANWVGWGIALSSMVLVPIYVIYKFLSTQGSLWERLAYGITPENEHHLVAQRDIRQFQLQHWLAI

| SMILES | Discrimination ratio uptake/binding (DA) [2] | IC50 [2, 7] [µM] | Binding discrimination ratio NET/DAT [3] | Binding discrimination ratio SERT/DAT [3] | Hill coefficient [3] | Ki [3, 8] [µM] | Ki [4, 9] [µM] | Ki ([3]; [125I]RTI-55 binding Ki, DAT) | Hill coefficient [4] | IC50 ([1]; read-out: [3H]NE Uptake IC50) | Discrimination Ratio DAT Binding/Reuptake [2] | other results |
| --- | --- | --- | --- | --- | --- | --- | --- | --- | --- | --- | --- | --- |
| O=C1CN(CCCCOC(c2ccc(F)cc2)c2ccc(F)cc2)CCN1 [Compound 31524] | 0.6 | 2.29 | >2.4 | 0.4 | −064 ± 0.03 | 4.1 | > 10 |  |  |  |  | Ki ([1]; read-out: Reuptake [3H]NE (Ki ± SD)): > 10 µM; Ki ([2]; read-out: Reuptake [3H]DA (Ki ± SD)): 2.29 ± 0.2 µM |
| CC(=O)C1(c2ccccc2)CCN(CCCCOC(c2ccc(F)cc2)c2ccc(F)cc2)CC1 [Compound 31525] | 47.5 |  | 5.3 | 5.8 | −0.61 ± 0.01 |  |  | 0.0217 µM | −0.71 ± 0.06 |  |  | IC50 [1, 10]: 2.55 µM; Ki [1, 11]: 2.55 ± 0.95 µM; IC50 [2, 12]: 1.03 µM; Ki [2, 13]: 1.03 ± 0.33 µM; Ki [4, 14]: 0.114 µM |
| Fc1ccc(C(OCCCCN2CCN(c3ccccc3F)CC2)c2ccc(F)cc2)cc1 [Compound 31526] | 11.9 |  | 10.8 | 0.8 | −0.86 ± 0.06 |  |  | 0.0387 µM | −0.91 ± 0.09 | 0.7 µM | 11.9 | Ki [1]: 0.7 ± 0.24 µM; IC50 ([1]; [3H]NE Uptake IC50): 0.7 µM; Attenuation of cocaine-induced locomotor activity (male Swiss-Webster mice [5]; 0.1-10 mg/kg IP 20 min before 20 mg/kg cocaine IP): did not attenuate locomotor activity induced by 20 mg/kg cocaine; IC50 [2]: 0.46 µM; Ki [2]: 0.46 ± 0.14 µM; ED50 (male Swiss-Webster mice [6]; ip): 0.015 mg/kg; Maximal effect/cocaine maximal effect ratio (ME/CME) (male Swiss-Webster mice [6]; mouse, in vivo): 0.49; Maximum effect, horizontal activity (male Swiss-Webster mice [6]; mouse, in vivo): 2716.1 counts/10 min; Dose at estimated maximum effect (male Swiss-Webster mice [6]; mouse, in vivo, ip): 0.64 mg/kg; Doses with significant differences against the vehicle group (p<0.05) (male Swiss-Webster mice [6]; mouse, in vivo, ip): 1 mg/kg; Ki ([4]; [125I]RTI-55 binding Ki, NET): 0.417 µM |
| Fc1ccc(C(OCCCCN2CCN(c3ccc(F)cc3)CC2)c2ccc(F)cc2)cc1 [Compound 31527] | 23.0 |  | 7.8 | 1.3 | −0.84 ± 0.05 |  |  | 0.0265 µM | −0.72 ± 0.05 |  | 23.0 | Ki [1]: 0.225 ± 0.028 µM; IC50 ([1]; [3H]NE Uptake IC50): 0.225 ± 0.028 µM; IC50 [2]: 0.61 µM; Ki [2]: 0.61 ± 0.15 µM; Ki ([4]; [125I]RTI-55 binding Ki, NET): 0.207 µM |
| OC1(c2ccc(Br)cc2)CCN(CCCCOC(c2ccc(F)cc2)c2ccc(F)cc2)CC1 [Compound 31530] | 110.5 |  | 64.1 | 9.7 | −0.59 ± 0.06 |  |  | 0.0039 µM and 0.01 µM | −0.97 ± 0.30 |  |  | IC50 [1, 10]: 1.87 µM; Ki [1, 11]: 1.87 ± 0.67 µM; AD50 (dose attenuating cocaine-induced stimulation by 50%) (male Swiss-Webster mice [5]; IP, 20 mg/kg cocaine IP, 30-min period): 15.75 mg/kg; Doses with significant differences against the cocaine group (p<0.05) (male Swiss-Webster mice [5]; 20 mg/kg cocaine IP): 30 mg/kg; IC50 [2, 12]: 0.431 µM; Ki [2, 13]: 0.431 ± 0.088 µM; ED50 (male Swiss-Webster mice [6]; ip): 2.42 mg/kg; Maximal effect/cocaine maximal effect ratio (ME/CME) (male Swiss-Webster mice [6]; mouse, in vivo): 0.38; Maximum effect, horizontal activity (male Swiss-Webster mice [6]; mouse, in vivo): 2132.6 counts/10 min; Dose at estimated maximum effect (male Swiss-Webster mice [6]; mouse, in vivo, ip): 6.00 mg/kg |
| OC1(c2ccccc2)CCN(CCCCOC(c2ccc(F)cc2)c2ccc(F)cc2)CC1 [Compound 31531] | 15.0 |  | 8.4 | 2.8 | −0.63 ± 0.06 |  |  | 0.0064 µM | −0.73 ± 0.03 |  |  | IC50 [1, 10]: 0.179 µM; Ki [1, 11]: 0.179 ± 0.047 µM; IC50 [2]: 0.096 µM; Ki [2]: 0.096 ± 0.011 µM; Ki ([4]; [125I]RTI-55 binding Ki, NET): 0.054 µM |
| Fc1ccc(C(OCCCCN2CCNC(c3ccccc3)C2)c2ccc(F)cc2)cc1 (stereo not drawn) [Compound 31533] | 144.4 |  | 49.9 | 19.6 |  |  |  |  |  |  |  | Ki [1]: 0.29 ± 0.13 µM; Doses with significant differences against the cocaine group (p<0.05) (male Swiss-Webster mice [5]; 20 mg/kg cocaine IP): 30 mg/kg; Ki [2]: 0.55 ± 0.14 µM; ED50 (male Swiss-Webster mice [6]; ip): 1.52 mg/kg; Maximal effect/cocaine maximal effect ratio (ME/CME) (male Swiss-Webster mice [6]; mouse, in vivo): 0.30; Maximum effect, horizontal activity (male Swiss-Webster mice [6]; mouse, in vivo): 1648.6 counts/10 min; Dose at estimated maximum effect (male Swiss-Webster mice [6]; mouse, in vivo, ip): 10.26 mg/kg |
| OC1(c2ccc(Cl)cc2)CCN(CCCCOC(c2ccc(F)cc2)c2ccc(F)cc2)CC1 [Compound 31625] |  |  | 51.7 | 2380 | −0.74 ± 0.25 |  |  | 0.0042 µM | −0.99 ± 0.22 |  | 95.2 | IC50 [1, 10]: 0.8 µM; IC50 ([2]; HEK-hDAT cells, text of Examples 20 and 24, read-out: [3H]Dopamine Uptake IC50): 0.4 µM; Ki [4, 14]: 0.217 µM |
| Fc1ccc(C(OCCCCN2CCN(c3ccccc3Cl)CC2)c2ccc(F)cc2)cc1 [Compound 31626] |  | 0.328 | 8.1 | 1.3 | −1.11 ± 0.08 | 0.067 | 0.54 |  | −1.39 ± 0.23 | 0.29 µM and 0.299 µM | 4.9 |  |
| O=C1c2ccccc2C(=O)N1CCCCN1CCC(O)(c2ccc(Br)cc2)CC1 [Compound 31627] |  | >10 | 1 | >0.2 |  |  |  |  |  | >10 µM |  | Ki ([3]; HEK-hDAT cells, bound given in μM, read-out: [125I]RTI-55 binding Ki, DAT): > 10 µM; Ki ([4]; HEK-hNET cells, bound given in μM, read-out: [125I]RTI-55 binding Ki, NET): > 10 µM |
| NC(=O)C1CCCN(CCCCOC(c2ccc(F)cc2)c2ccc(F)cc2)C1 (stereo not drawn) [Compound 31628] |  | 0.056 | 6.1 | 1.4 | −1.02 ± 0.16 | 0.094 | 0.578 |  | −1.48 ± 0.70 | 0.158 µM | 0.6 |  |
| OC1CCN(CCCCOC(c2ccc(F)cc2)c2ccc(F)cc2)CC1 [Compound 31648] |  | 0.101 | 5.4 | 3.7 | −0.69 ± 0.07 | 0.124 ± 0.027 | 0.61 |  | −0.75 ± 0.06 | 0.143 µM | 0.9 |  |
| O=c1[nH]c2ccccc2n1C1CCN(CCCCOC(c2ccc(F)cc2)c2ccc(F)cc2)CC1 [Compound 31649] |  | 0.426 | 16.8 | 2.9 | −0.63 ± 0.23 | 0.00132 | 0.0222 |  | −0.47 ± 0.03 | 0.132 µM | 323 |  |
| OC1CCCN(CCCCOC(c2ccc(F)cc2)c2ccc(F)cc2)C1 (stereo not drawn) [Compound 31650] |  | 0.114 | 6.7 | 4.8 | −0.82 ± 0.15 | 0.091 | 0.611 |  | −0.66 ± 0.05 | 0.31 µM | 1.3 |  |
| Fc1ccc(C(OCCCCN2CCN(c3cccc(Cl)c3)CC2)c2ccc(F)cc2)cc1 [Compound 31651] |  | 1.67 ± 0.44 | 1.7 | 0.8 |  | 0.175 ± 0.071 | 0.3 ± 0.07 |  |  | 0.189 ± 0.089 µM | 9.5 |  |
| Fc1ccc(C(OCCCCN2CCN(c3ccc(Cl)cc3)CC2)c2ccc(F)cc2)cc1 [Compound 31652] |  |  | 7.6 | 0.7 | −1.08 ± 0.18 |  |  | 0.05 µM | −0.80 ± 0.08 | 0.39 µM | 23.4 | IC50 ([1]; [3H]NE Uptake IC50): 0.39 µM; IC50 [2]: 1.17 µM; Ki ([4]; [125I]RTI-55 binding Ki, NET): 0.38 µM and 3.8 µM |
| Fc1ccc(C(OCCCCN2CCN(c3ccccc3)CC2)c2ccc(F)cc2)cc1 [Compound 31653] |  |  | 3.3 | 0.8 | −1.14 ± 0.10 |  |  | 0.0609 µM | −0.93 ± 0.17 |  | 23.2 | IC50 ([1]; [3H]NE Uptake IC50): 0.0563 µM; IC50 [2]: 1.41 µM; Ki ([4]; [125I]RTI-55 binding Ki, NET): 0.203 µM |
| COc1ccccc1N1CCN(CCCCOC(c2ccc(F)cc2)c2ccc(F)cc2)CC1 [Compound 31654] |  | 0.301 | 3.5 | 9.7 | −0.88 ± 0.09 | 0.0262 | 0.092 |  | −0.59 ± 0.02 | 0.176 µM | 11.5 |  |
